Source: ChEMBL document CHEMBL4507294, “Data for DCP probe MSD-CYP11B2” (2021)

Columns and labels:
[1] = target: Ribosomal protein S6 kinase alpha-6 (Homo sapiens) (UniProt Q9UK32); conditions: Compound concentration 1000.0 nM
[2] = target: Activin receptor type-2A (Homo sapiens) (UniProt P27037); conditions: Compound concentration 1000.0 nM
[3] = test system: ALK tyrosine kinase receptor (Homo sapiens), Q9UM73 [C1156Y]; conditions: Compound concentration 1000.0 nM
[4] = target: Serine/threonine-protein kinase haspin (Homo sapiens) (UniProt Q8TF76); conditions: Compound concentration 1000.0 nM
Chain of Serine/threonine-protein kinase haspin (Homo sapiens) (Q8TF76 whole entry): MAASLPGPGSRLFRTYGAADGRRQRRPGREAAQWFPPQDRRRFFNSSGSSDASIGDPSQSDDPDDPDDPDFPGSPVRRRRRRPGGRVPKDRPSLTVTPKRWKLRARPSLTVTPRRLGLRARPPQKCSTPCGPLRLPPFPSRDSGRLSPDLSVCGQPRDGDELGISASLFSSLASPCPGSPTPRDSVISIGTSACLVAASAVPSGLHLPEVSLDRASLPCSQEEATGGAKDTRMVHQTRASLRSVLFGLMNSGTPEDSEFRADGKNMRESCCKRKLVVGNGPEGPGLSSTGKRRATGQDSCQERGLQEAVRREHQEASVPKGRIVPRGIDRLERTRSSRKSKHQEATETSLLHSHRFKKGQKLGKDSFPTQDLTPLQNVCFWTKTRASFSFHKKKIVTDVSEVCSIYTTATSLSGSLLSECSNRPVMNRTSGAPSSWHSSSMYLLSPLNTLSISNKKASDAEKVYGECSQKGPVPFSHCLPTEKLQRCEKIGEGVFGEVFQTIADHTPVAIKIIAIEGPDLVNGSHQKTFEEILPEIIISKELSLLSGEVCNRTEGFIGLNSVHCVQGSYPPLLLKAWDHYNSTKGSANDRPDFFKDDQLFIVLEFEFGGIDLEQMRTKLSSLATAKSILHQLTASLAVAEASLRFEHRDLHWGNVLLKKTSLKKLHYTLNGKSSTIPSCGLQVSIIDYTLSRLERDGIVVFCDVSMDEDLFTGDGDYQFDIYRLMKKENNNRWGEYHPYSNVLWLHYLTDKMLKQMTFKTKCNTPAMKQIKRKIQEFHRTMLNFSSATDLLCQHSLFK

[5] = target: Ribosomal protein S6 kinase alpha-6 (Homo sapiens) (UniProt Q9UK32); conditions: Compound concentration 1000.0 nM; remark: listed apart in the source
[6] = target: Phosphorylase b kinase gamma catalytic chain, skeletal muscle/heart isoform (Homo sapiens) (UniProt Q16816); conditions: Compound concentration 1000.0 nM
[7] = target: T1, Alpha-2B adrenergic receptor (Homo sapiens) (UniProt P18089); conditions: Compound concentration 10.0 uM
T1 sequence (whole entry): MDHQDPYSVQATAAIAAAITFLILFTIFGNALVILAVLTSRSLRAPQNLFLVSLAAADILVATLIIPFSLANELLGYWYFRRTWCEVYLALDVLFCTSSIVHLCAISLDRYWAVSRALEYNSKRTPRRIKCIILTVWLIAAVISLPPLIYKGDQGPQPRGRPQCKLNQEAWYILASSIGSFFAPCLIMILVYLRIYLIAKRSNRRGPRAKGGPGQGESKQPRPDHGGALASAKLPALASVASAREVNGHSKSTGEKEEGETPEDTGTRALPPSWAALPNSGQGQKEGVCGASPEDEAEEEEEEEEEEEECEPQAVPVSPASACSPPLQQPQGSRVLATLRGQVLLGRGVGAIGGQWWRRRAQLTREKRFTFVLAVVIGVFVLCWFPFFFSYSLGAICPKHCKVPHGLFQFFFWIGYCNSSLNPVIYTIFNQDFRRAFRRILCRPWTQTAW

[8] = target: D(1B) dopamine receptor (Homo sapiens) (UniProt P21918); conditions: Compound concentration 10.0 uM
[9] = target: Ephrin type-B receptor 6 (Homo sapiens) (UniProt O15197); conditions: Compound concentration 1000.0 nM
[10] = target: Serine/threonine-protein kinase MRCK beta (Homo sapiens) (UniProt Q9Y5S2); conditions: Compound concentration 1000.0 nM
[11] = target: Cyclin-dependent kinase 13 (Homo sapiens) (UniProt Q14004); conditions: Compound concentration 1000.0 nM
[12] = target: Megakaryocyte-associated tyrosine-protein kinase (Homo sapiens) (UniProt P42679); conditions: Compound concentration 1000.0 nM
[13] = target: Mitogen-activated protein kinase kinase kinase 10 (Homo sapiens) (UniProt Q02779); conditions: Compound concentration 1000.0 nM
[14] = target: Receptor tyrosine-protein kinase erbB-3 (Homo sapiens) (UniProt P21860); conditions: Compound concentration 1000.0 nM
Chain of Receptor tyrosine-protein kinase erbB-3 (Homo sapiens) (P21860 whole entry, canonical isoform): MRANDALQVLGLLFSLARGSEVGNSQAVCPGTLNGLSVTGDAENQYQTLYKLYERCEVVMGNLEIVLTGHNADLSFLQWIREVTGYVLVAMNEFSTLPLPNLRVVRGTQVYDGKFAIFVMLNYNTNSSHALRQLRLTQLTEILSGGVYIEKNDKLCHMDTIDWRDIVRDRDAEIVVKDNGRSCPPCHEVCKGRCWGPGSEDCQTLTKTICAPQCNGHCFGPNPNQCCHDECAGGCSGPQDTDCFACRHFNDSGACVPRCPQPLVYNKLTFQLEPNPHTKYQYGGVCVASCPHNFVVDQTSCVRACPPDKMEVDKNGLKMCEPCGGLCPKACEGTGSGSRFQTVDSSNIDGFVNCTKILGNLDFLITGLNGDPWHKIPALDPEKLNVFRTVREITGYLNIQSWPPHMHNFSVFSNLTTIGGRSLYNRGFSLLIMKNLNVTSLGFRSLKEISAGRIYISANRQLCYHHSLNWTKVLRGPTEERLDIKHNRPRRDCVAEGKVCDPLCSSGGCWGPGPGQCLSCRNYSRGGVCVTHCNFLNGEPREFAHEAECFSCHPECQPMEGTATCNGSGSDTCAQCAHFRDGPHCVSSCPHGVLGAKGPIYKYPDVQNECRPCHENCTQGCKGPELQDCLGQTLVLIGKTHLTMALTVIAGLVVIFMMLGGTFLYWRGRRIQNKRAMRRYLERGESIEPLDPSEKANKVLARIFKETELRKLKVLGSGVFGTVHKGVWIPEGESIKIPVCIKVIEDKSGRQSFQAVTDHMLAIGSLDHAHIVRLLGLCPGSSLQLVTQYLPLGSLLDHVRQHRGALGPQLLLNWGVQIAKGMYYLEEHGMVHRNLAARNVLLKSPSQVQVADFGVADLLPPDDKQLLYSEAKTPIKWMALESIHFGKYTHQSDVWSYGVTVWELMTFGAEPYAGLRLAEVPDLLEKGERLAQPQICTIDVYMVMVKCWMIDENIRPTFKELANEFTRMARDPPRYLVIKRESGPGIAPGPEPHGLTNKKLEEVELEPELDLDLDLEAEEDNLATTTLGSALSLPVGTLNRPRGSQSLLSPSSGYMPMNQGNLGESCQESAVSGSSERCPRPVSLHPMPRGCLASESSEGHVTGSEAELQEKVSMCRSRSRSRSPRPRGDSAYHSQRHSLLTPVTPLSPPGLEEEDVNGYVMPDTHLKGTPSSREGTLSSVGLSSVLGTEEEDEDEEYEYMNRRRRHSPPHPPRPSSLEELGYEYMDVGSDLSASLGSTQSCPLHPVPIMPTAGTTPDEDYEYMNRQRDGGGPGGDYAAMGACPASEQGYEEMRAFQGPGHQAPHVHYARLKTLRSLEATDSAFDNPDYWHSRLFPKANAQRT

[15] = test system: Phosphatidylinositol 4,5-bisphosphate 3-kinase catalytic subunit alpha isoform (Homo sapiens), P42336 [M1043I]; conditions: Compound concentration 1000.0 nM
[16] = target: Ribosomal protein S6 kinase alpha-3 (Homo sapiens) (UniProt P51812); conditions: Compound concentration 1000.0 nM
[17] = target: Mitogen-activated protein kinase 6 (Homo sapiens) (UniProt Q16659); conditions: Compound concentration 1000.0 nM
[18] = target: Serine/threonine-protein kinase tousled-like 1 (Homo sapiens) (UniProt Q9UKI8); conditions: Compound concentration 1000.0 nM
[19] = target: Hepatocyte growth factor receptor (Homo sapiens) (UniProt P08581); conditions: Compound concentration 1000.0 nM
Chain of Hepatocyte growth factor receptor (Homo sapiens) (P08581 whole entry): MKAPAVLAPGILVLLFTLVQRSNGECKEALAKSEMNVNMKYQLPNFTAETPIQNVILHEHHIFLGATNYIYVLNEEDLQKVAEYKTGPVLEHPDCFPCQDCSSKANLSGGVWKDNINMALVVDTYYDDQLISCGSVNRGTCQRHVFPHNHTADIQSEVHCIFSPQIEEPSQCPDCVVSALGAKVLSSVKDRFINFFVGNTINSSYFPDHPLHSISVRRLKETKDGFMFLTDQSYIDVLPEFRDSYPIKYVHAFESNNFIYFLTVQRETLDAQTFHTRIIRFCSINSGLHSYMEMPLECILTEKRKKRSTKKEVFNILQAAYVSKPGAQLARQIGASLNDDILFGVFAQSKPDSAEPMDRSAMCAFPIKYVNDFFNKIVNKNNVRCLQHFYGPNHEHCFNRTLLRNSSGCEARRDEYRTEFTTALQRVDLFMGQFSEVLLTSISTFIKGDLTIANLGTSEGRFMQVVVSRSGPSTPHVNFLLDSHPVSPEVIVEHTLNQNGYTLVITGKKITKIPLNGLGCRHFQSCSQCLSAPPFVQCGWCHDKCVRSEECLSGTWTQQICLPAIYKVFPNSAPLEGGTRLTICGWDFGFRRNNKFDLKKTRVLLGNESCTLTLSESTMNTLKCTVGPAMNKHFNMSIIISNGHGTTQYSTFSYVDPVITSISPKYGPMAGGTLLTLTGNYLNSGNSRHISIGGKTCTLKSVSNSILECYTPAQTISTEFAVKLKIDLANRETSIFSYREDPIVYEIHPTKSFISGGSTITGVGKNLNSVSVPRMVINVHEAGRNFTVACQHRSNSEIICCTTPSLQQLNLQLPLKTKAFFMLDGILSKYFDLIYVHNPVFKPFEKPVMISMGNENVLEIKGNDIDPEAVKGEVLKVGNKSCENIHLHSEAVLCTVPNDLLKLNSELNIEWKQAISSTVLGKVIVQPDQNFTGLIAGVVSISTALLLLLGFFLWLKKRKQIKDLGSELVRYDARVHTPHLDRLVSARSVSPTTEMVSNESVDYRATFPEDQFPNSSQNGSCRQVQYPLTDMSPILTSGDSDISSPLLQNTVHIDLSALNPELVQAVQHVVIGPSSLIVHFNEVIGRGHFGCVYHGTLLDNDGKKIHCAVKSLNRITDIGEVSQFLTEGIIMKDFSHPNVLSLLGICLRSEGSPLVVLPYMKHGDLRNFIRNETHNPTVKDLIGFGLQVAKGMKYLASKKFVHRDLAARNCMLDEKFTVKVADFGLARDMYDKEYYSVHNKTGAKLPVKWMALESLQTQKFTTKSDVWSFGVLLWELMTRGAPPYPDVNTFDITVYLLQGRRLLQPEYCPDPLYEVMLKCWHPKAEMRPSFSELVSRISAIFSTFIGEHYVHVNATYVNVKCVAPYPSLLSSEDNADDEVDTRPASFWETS

[20] = target: Serine/threonine-protein kinase Sgk2 (Homo sapiens) (UniProt Q9HBY8); conditions: Compound concentration 1000.0 nM
[21] = target: Protein kinase C iota type (Homo sapiens) (UniProt P41743); conditions: Compound concentration 1000.0 nM
Chain of Protein kinase C iota type (Homo sapiens) (P41743 whole entry): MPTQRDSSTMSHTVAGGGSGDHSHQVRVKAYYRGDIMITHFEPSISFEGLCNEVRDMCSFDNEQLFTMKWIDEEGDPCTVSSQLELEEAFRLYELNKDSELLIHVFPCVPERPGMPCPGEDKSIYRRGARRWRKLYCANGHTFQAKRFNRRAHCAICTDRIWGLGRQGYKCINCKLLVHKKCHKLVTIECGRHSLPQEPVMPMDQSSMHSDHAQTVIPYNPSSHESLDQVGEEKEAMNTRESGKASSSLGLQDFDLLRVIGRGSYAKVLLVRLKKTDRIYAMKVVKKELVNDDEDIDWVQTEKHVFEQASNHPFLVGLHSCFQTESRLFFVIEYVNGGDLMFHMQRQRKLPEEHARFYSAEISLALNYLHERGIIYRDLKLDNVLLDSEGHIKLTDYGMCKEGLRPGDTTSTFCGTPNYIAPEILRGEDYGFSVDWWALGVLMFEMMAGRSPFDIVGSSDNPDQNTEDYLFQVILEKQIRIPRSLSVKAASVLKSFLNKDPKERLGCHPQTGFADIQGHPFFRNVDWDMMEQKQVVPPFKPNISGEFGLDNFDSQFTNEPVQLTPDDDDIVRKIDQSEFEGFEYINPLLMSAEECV

[22] = target: Myotonin-protein kinase (Homo sapiens) (UniProt Q09013); conditions: Compound concentration 1000.0 nM
[23] = target: Activated CDC42 kinase 1 (Homo sapiens) (UniProt Q07912); conditions: Compound concentration 1000.0 nM
[24] = target: Serine/threonine-protein kinase Nek5 (Homo sapiens) (UniProt Q6P3R8); conditions: Compound concentration 1000.0 nM
[25] = target: Dual serine/threonine and tyrosine protein kinase (Homo sapiens) (UniProt Q6XUX3); conditions: Compound concentration 1000.0 nM
[26] = target: D(1A) dopamine receptor (Homo sapiens) (UniProt P21728); conditions: Compound concentration 10.0 uM
[27] = test system: Phosphatidylinositol 4,5-bisphosphate 3-kinase catalytic subunit alpha isoform (Homo sapiens), P42336 [C420R]; conditions: Compound concentration 1000.0 nM
[28] = target: Non-receptor tyrosine-protein kinase TNK1 (Homo sapiens) (UniProt Q13470); conditions: Compound concentration 1000.0 nM
[29] = target: Serine/threonine-protein kinase PLK1 (Homo sapiens) (UniProt P53350); conditions: Compound concentration 1000.0 nM
[30] = target: Serine/threonine-protein kinase PAK 2 (Homo sapiens) (UniProt Q13177); conditions: Compound concentration 1000.0 nM
[31] = target: Serine/threonine-protein kinase tousled-like 2 (Homo sapiens) (UniProt Q86UE8); conditions: Compound concentration 1000.0 nM
[32] = test system: Epidermal growth factor receptor (Homo sapiens), P00533 [L861Q]; conditions: Compound concentration 1000.0 nM
[33] = target: Tyrosine-protein kinase ABL2 (Homo sapiens) (UniProt P42684); conditions: Compound concentration 1000.0 nM
[34] = target: Myosin light chain kinase, smooth muscle (Homo sapiens) (UniProt Q15746); conditions: Compound concentration 1000.0 nM
[35] = target: Serine/threonine-protein kinase MRCK gamma (Homo sapiens) (UniProt Q6DT37); conditions: Compound concentration 1000.0 nM
[36] = target: Ribosomal protein S6 kinase alpha-5 (Homo sapiens) (UniProt O75582); conditions: Compound concentration 1000.0 nM
[37] = target: Serine/threonine-protein kinase PAK 4 (Homo sapiens) (UniProt O96013); conditions: Compound concentration 1000.0 nM
[38] = target: Serine/threonine-protein kinase Nek2 (Homo sapiens) (UniProt P51955); conditions: Compound concentration 1000.0 nM
[39] = target: cGMP-dependent protein kinase 2 (Homo sapiens) (UniProt Q13237); conditions: Compound concentration 1000.0 nM

Chain of Ribosomal protein S6 kinase alpha-6 (Homo sapiens) (Q9UK32 whole entry, canonical isoform): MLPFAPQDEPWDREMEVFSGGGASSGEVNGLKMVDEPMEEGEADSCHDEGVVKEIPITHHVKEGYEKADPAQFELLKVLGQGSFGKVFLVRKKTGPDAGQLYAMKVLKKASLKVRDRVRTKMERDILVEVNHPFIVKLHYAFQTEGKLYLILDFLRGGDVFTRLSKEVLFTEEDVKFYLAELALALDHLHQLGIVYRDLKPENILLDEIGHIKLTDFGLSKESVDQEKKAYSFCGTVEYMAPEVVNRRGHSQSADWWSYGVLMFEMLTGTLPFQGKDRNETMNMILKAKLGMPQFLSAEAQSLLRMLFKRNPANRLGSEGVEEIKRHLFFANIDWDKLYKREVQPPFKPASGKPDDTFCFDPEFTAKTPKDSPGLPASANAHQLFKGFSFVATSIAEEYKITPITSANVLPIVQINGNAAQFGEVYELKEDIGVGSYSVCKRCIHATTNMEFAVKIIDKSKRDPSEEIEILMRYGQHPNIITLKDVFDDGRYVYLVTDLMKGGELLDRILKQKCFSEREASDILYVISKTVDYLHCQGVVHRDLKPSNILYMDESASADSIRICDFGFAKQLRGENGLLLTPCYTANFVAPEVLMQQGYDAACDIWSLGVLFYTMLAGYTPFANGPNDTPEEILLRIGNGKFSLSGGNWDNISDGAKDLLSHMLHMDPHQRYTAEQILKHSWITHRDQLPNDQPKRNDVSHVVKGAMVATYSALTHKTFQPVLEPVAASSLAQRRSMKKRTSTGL

Compound	residual activity [1]	residual activity [2]	residual activity [3]	residual activity [4]	residual activity [5]	residual activity [6]	inhibition [7]	inhibition [8]	residual activity [9]	residual activity [10]	residual activity [11]	residual activity [12]	residual activity [13]	residual activity [14]	residual activity [15]	residual activity [16]	residual activity [17]	residual activity [18]	residual activity [19]	residual activity [20]	further results
FC(F)(F)c1ccc2c(c1)nc(-c1cccnc1)n2C1CC1 [MSD-CYP11B2-Negative-control]	100%	100%	100%	96%	100%	100%	43.3%	22.5%	100%	100%	100%	100%	100%	77%	100%	71%	100%	100%	100%	100%	residual activity [21]: 83%; residual activity [22]: 92%; residual activity [23]: 100%; residual activity [24]: 100%; residual activity [25]: 100%; inhibition [26]: -3.97%; residual activity [27]: 92%; residual activity [28]: 100%; residual activity [29]: 96%; residual activity [30]: 100%; residual activity [31]: 100%; residual activity [32]: 100%; residual activity [33]: 100%; residual activity [34]: 100%; residual activity [35]: 100%; residual activity [36]: 100%; residual activity [37]: 100%; residual activity [38]: 100%; residual activity [39]: 78%
CC(C)(O)c1cncc(-c2nc3ccc(F)cc3n2C2CC2)c1 [MSD-CYP11B2]	100%	87%	100%	83%	100%	100%	76.4%	21%	100%	100%	96%	100%	100%	80%	100%	69%	100%	100%	100%	100%	residual activity [21]: 89%; residual activity [22]: 71%; residual activity [23]: 100%; residual activity [24]: 100%; residual activity [25]: 100%; inhibition [26]: 0.87%; residual activity [27]: 96%; residual activity [28]: 100%; residual activity [29]: 100%; residual activity [30]: 100%; residual activity [31]: 100%; residual activity [32]: 100%; residual activity [33]: 100%; residual activity [34]: 80%; residual activity [35]: 100%; residual activity [36]: 100%; residual activity [37]: 100%; residual activity [38]: 100%; residual activity [39]: 90%
